The numbers were not newly measured in patent publication US7108866B1, “Chronotherapeutic diltiazem formulations and the administration thereof” (Biovall Laboratories International SRL, priority 1999, dated 2006), which cites them from elsewhere.

For the series the following is noted: at steady state.

A word on the Tmax: it is the time at which the peak concentration occurs. For `COc1ccc([C@@H]2Sc3ccccc3N(CCN(C)C)C(=O)[C@@H]2OC(C)=O)cc1` [Diltiazem], the time of peak concentration (Tmax) is 2 to 6 h.
